Data set [1] has as its target T1, CT receptor (Homo sapiens, UniProt P30988).
T1 construct: Assays using microsomal membrane fractions of rat brain and T-47D cells; host or cells: T-47D
T1 sequence (P30988 25-474): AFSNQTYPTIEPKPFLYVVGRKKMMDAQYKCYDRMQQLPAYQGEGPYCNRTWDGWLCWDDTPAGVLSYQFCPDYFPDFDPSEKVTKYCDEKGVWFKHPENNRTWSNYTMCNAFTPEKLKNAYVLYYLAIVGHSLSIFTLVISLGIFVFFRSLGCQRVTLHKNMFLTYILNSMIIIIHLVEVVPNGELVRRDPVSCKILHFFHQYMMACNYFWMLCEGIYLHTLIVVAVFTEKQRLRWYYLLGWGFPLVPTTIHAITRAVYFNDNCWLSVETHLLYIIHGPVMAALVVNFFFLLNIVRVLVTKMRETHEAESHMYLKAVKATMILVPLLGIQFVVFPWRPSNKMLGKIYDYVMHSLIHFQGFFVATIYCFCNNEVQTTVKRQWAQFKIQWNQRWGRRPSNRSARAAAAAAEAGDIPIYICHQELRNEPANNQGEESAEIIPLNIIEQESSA
Briefly: Displacement of 125I-CT from CT receptor in T-47D cell membranes. The data set is classed as binding. The method, then:
(§1) Peptide reagents within the scope of the invention, or ReO complexed embodiments thereof, were tested using in vitro assays that measure their ability to inhibit the specific binding of ^125I-CT to the CT receptor, using membranes from rat brain or from a breast tumor cell line, and on whole cells from breast tumor cell lines, as described in detail below.
(§2) Assays using microsomal membrane fractions of rat brain and T-47D cells (obtained from the American Type Culture collection, Rockville, Md., ATCC Accession No. HTB-133) were used to identify analogs with high affinity for the CT receptor according to the method of Fisher et al. (1977, British J. Cancer 35: 777-784). Briefly, tissue was minced and homogenized. The membranes were washed several times, assayed for protein content and used in the binding assay. Membrane protein was incubated with 0.1 μCi of ^125I-salmon CT (Amersham, Cleveland, Ohio) in he presence or absence of varying concentrations of reagents to be tested. Both uncomplexed and ReO complexed reagents were tested. One hundred percent specific binding of ^125I-CT to the CT receptor was defined as the difference between total ^125I-CT binding and nonspecific binding of ^125I-CT measured in the presence of a receptor-saturating concentration (1 μM) of excess unlabeled salmon CT (Sigma, St. Louis, Mo.).

Data set [2] addresses CT receptor. As to the kind of experiment: Displacement of 125I-CT from CT receptor in rat brain membranes. In kind it is binding. To be noted: displacement of 125I-CT (Table III). The method, then: as §1, §2
For orientation: Displacement assays read how much labelled ligand stays bound in the presence of the test substance.

In a further data set the test system is T-47D tumor. Briefly: Biodistribution of 99mTc-CT peptide, T-47D tumor in nude mouse. In kind it is in vivo. Conditions: 99mTc-labeled peptide, 90 minutes. An excerpt:
(§3) Breast cancer cell lines were screened for receptor expression and the best cell lines chosen for xenograft implantation in immune deficient mice. These tumor models were used to evaluate the tumor targeting potential in vivo of the high affinity peptides identified in the in vitro assays above.
(§4) CT receptor expressing breast cancer cells (T47D and MCF-7) were implanted into immune deficient mice or Sprague-Dawley rats and allowed to grow tumors. For testing new ^99mTc-CT peptides, tumor-bearing mice or rats were injected with approximately 0.025 mCi at approximately 6 mCi/10 nmol peptide. The animals were cervically dislocated and imaged statically for 5 minutes using a gamma camera. The biodistribution of the ^99mTc-CT peptide was then determined by counting blood, tumor, target organs and muscle in a gamma counter along with standard aliquots of the injected dose. The time points for biodistribution were chosen to represent early, middle and late phases of ^99mTc-CT analog clearance. […] To assess the tumor imaging potential of selected analogs, the ratio of radioactivity in blood and various tissues were compared to that in tumor.

Experiment in data set [3]: as above
Conditions: 0.025 mCi, total radioactivity, 99mTc-labeled peptide; for tissue uptake dose at […]: 90 minutes. The data set is classed as in vivo.
From the text: as §3, §4

Data set [4] in a line: Biodistribution of 99mTc-CT peptide in rat. Conditions: 99mTc-labeled peptide; for tissue uptake dose at […] / tissue uptake at […]: 0.025 mCi; for tissue uptake dose at […]: 90 minutes; for tissue uptake at […]: 90 minutes post-injection. In kind it is in vivo. The method, then: as §4
The mark [5] stands for this setting: T-47D membranes, displacement of 125I-CT (Table III).
[6] abbreviates: T-47D membranes, displacement of 125I-CT (Table III), read-out: T-47D IC50.

The structures appear in SMILES notation. Like-named read-outs stand apart in the source and are kept apart here. Starred links: 1 amine or outer side, 2 acyl side, 3 side chain; linkers in the order of their positions; H or OH if unused. Positions of bridges follow the written chain, without caps; N, C: chain ends. Non-standard residues stand in square brackets, D forms with d. Residues, ends and D or L forms follow the SMILES beside them. *: point of attachment. X2 = NCCCC[C@H](NC(=O)[C@H](CS)NC(=O)[C@H](CCCCN)NC(=O)[C@@H](N)CNC(=O)C*)C(N)=O; X1 = NCCCC[C@H](NC(=O)[C@H](CS)NC(=O)CNC(=O)CNC(=O)C*)C(N)=O; hhCys(CH2CO) = O=C([C@H](CCCSCC(=O)[*:3])N[*:1])[*:2]; εLys = N[C@@H](CCCCN[*:1])C(=O)[*:2]; X3 = CC(C)(S)CNCCN(CCCCC*)CC(C)(C)S

By Ki is commonly meant a dissociation constant, usually derived from enzyme kinetics or from competition with a known ligand. Low values mean tighter binding, high ones weaker binding. One may read the IC50 as the point on the concentration scale where inhibition reaches its midpoint. For the compound `CC(C)C[C@H](NC(=O)[C@H](CCCCN)NC(=O)CNC(=O)[C@H](CC(C)C)NC(=O)[C@@H](NC(=O)[C@@H]1CCCSCC(=O)N[C@@H](CO)C(=O)N[C@@H](CC(N)=O)C(=O)N[C@@H](CC(C)C)C(=O)N[C@@H](CO)C(=O)N[C@@H]([C@@H](C)O)C(=O)N1)C(C)C)C(=O)N[C@@H](CO)C(=O)N[C@@H](CSCCCCCN(CCNCC(C)(C)S)CC(C)(C)S)C(=O)N[C@@H](CCC(=O)O)C(=O)N[C@@H](CC(C)C)C(=O)N[C@@H](Cc1c[nH]cn1)C(=O)N[C@@H](CCCCN)C(=O)N[C@@H](CC(C)C)C(=O)N[C@@H](CCC(N)=O)C(=O)N[C@H](C(=O)N[C@@H](Cc1ccc(O)cc1)C(=O)N1CCC[C@H]1C(=O)N[C@@H](CCCNC(=N)N)C(=O)N[C@H](C(=O)N[C@@H](CC(N)=O)C(=O)N[C@H](C(=O)NCC(=O)N[C@@H](CO)C(=O)NCC(=O)N[C@H](C(=O)N1CCC[C@H]1C(N)=O)[C@@H](C)O)[C@@H](C)O)[C@@H](C)O)[C@@H](C)O` [Peptide 1] (SNLST[hhCys(CH2CO)]VLGKLSC(X3)ELHKLQTYPRTNTGSGTP-NH2; lactam N-6), the affinity on CT receptor [1] (setting [5]) corresponds to a Ki of 0.41 nM. Also, the values for the half-inhibitory concentration (IC50) on CT receptor [1] (setting [6]) and at CT receptor [2] were 0.53 nM and 2.6 nM, respectively.
As for `CC(C)C[C@H](NC(=O)[C@H](CCCCN)NC(=O)CNC(=O)[C@H](CC(C)C)NC(=O)[C@@H](NC(=O)[C@@H]1CCCSCC(=O)N[C@@H](CO)C(=O)N[C@@H](CC(N)=O)C(=O)N[C@@H](CC(C)C)C(=O)N[C@@H](CO)C(=O)N[C@@H]([C@@H](C)O)C(=O)N1)C(C)C)C(=O)N[C@@H](CO)C(=O)N[C@@H](CCC(N)=O)C(=O)N[C@@H](CCC(=O)O)C(=O)N[C@@H](CC(C)C)C(=O)N[C@@H](Cc1c[nH]cn1)C(=O)N[C@@H](CCCCN)C(=O)N[C@@H](CC(C)C)C(=O)N[C@@H](CCC(N)=O)C(=O)N[C@H](C(=O)N[C@@H](Cc1ccc(O)cc1)C(=O)N1CCC[C@H]1C(=O)N[C@@H](CCCNC(=N)N)C(=O)N[C@H](C(=O)N[C@@H](CC(N)=O)C(=O)N[C@H](C(=O)NCC(=O)N[C@@H](CO)C(=O)NCC(=O)N[C@H](C(=O)N1CCC[C@H]1C(=O)NCCCC[C@H](N)C(=O)NCC(=O)N[C@@H](CS)C(N)=O)[C@@H](C)O)[C@@H](C)O)[C@@H](C)O)[C@@H](C)O` [Peptide 2] (SNLST[hhCys(CH2CO)]VLGKLSQELHKLQTYPRTNTGSGTP[εLys]GC-NH2; lactam N-6), the “Tum:Bld” value in the data set on T-47D tumor amounted to 3.3. For the same compound, the “Tum:Con” value in the data set with T-47D tumor is 10. For the same compound, the tissue uptake at […] in data set [3] (90 minutes post-injection) stood at 1.6 %ID/g. In addition, the tissue uptake dose at […] in data set [3] (GI tract, read-out: GI tract (% ID)) stood at 5.4 %ID; in data set [3] (kidneys, read-out: Kidneys (% ID)) it was 18 %ID; in data set [3] (liver, read-out: Liver (% ID)) it was 5.5 %ID; in data set [3] (lung, read-out: Lung (% ID)), 0.24 %ID. Besides, the affinity at CT receptor [1] (setting [5]), expressed as Ki, was 12 nM. Moreover, the results for the 50% inhibitory concentration (IC50) at CT receptor [1] (setting [6]) and at CT receptor [2] were 16 nM and 18 nM, respectively.
Regarding `CC(C)C[C@H](NC(=O)[C@H](CCCCN)NC(=O)CNC(=O)[C@H](CC(C)C)NC(=O)[C@@H](NC(=O)[C@@H]1CCCSCC(=O)N[C@@H](CO)C(=O)N[C@@H](CC(N)=O)C(=O)N[C@@H](CC(C)C)C(=O)N[C@@H](CO)C(=O)N[C@@H]([C@@H](C)O)C(=O)N1)C(C)C)C(=O)N[C@@H](CO)C(=O)N[C@@H](CSCC(=O)NCC(=O)NCC(=O)N[C@@H](CS)C(=O)N[C@@H](CCCCN)C(N)=O)C(=O)N[C@@H](CCC(=O)O)C(=O)N[C@@H](CC(C)C)C(=O)N[C@@H](Cc1c[nH]cn1)C(=O)N[C@@H](CCCCN)C(=O)N[C@@H](CC(C)C)C(=O)N[C@@H](CCC(N)=O)C(=O)N[C@H](C(=O)N[C@@H](Cc1ccc(O)cc1)C(=O)N1CCC[C@H]1C(=O)N[C@@H](CCCNC(=N)N)C(=O)N[C@H](C(=O)N[C@@H](CC(N)=O)C(=O)N[C@H](C(=O)NCC(=O)N[C@@H](CO)C(=O)NCC(=O)N[C@H](C(=O)N1CCC[C@H]1C(N)=O)[C@@H](C)O)[C@@H](C)O)[C@@H](C)O)[C@@H](C)O` [Peptide 4] (SNLST[hhCys(CH2CO)]VLGKLSC(X1)ELHKLQTYPRTNTGSGTP-NH2; lactam N-6), the IC50 at CT receptor [1] (T-47D cell membranes (Table IV), read-out: IC50 (nM)x) stood at 2.6 nM. Besides, in data set [4], the “PK (min) t½α” value stood at 1.4 min. Moreover, in data set [4], the “PK (min) t½β” value is on record as 19 min. For the same compound, the tissue uptake dose at […] in data set [4] (Sprague-Dawley, GI tract, total radioactivity, read-out: GI tract (% ID)) stood at 2 %ID; in data set [4] (Sprague-Dawley, kidneys, total radioactivity, read-out: Kidneys (% ID)), 35 %ID; in data set [4] (Sprague-Dawley, liver, total radioactivity, read-out: Liver (% ID)) it was 4 %ID; in data set [4] (Sprague-Dawley, lung, total radioactivity, read-out: Lung (% ID)), 0.53 %ID. Also, in data set [4] (Sprague-Dawley, blood, total radioactivity), the tissue uptake at […] was found to be 0.027 %ID/g.
In the case of `CC(C)C[C@H](NC(=O)[C@H](CCCCN)NC(=O)CNC(=O)[C@H](CC(C)C)NC(=O)[C@@H](NC(=O)[C@@H]1CCCSCC(=O)N[C@@H](CO)C(=O)N[C@@H](CC(N)=O)C(=O)N[C@@H](CC(C)C)C(=O)N[C@@H](CO)C(=O)N[C@@H]([C@@H](C)O)C(=O)N1)C(C)C)C(=O)N[C@@H](CO)C(=O)N[C@@H](CSCC(=O)NC[C@H](N)C(=O)N[C@@H](CCCCN)C(=O)N[C@@H](CS)C(=O)N[C@@H](CCCCN)C(N)=O)C(=O)N[C@@H](CCC(=O)O)C(=O)N[C@@H](CC(C)C)C(=O)N[C@@H](Cc1c[nH]cn1)C(=O)N[C@@H](CCCCN)C(=O)N[C@@H](CC(C)C)C(=O)N[C@@H](CCC(N)=O)C(=O)N[C@H](C(=O)N[C@@H](Cc1ccc(O)cc1)C(=O)N1CCC[C@H]1C(=O)N[C@@H](CCCNC(=N)N)C(=O)N[C@H](C(=O)N[C@@H](CC(N)=O)C(=O)N[C@H](C(=O)NCC(=O)N[C@@H](CO)C(=O)NCC(=O)N[C@H](C(=O)N1CCC[C@H]1C(N)=O)[C@@H](C)O)[C@@H](C)O)[C@@H](C)O)[C@@H](C)O` [Peptide 5] (SNLST[hhCys(CH2CO)]VLGKLSC(X2)ELHKLQTYPRTNTGSGTP-NH2; lactam N-6), the “PK (min) t½α” value in data set [4] is 1.6 min. Moreover, in data set [4], the “PK (min) t½β” value came to 17 min. Moreover, in data set [4] (in vivo, read-out: Blood (% ID/g)), the tissue uptake at […] stood at 0.048 %ID/g. Further, the tissue uptake dose at […] in data set [4] (in vivo, read-out: GI tract (% ID)) stood at 4.5 %ID; in data set [4] (in vivo, read-out: Kidneys (% ID)), 31 %ID; in data set [4] (in vivo, read-out: Liver (% ID)), 5.8 %ID; in data set [4] (in vivo, read-out: Lung (% ID)) it was 0.56 %ID.

For the origin of these results see US6509001B1, “Calcitonin receptor binding reagents” (Diatide, Inc., priority 1997, dated 2003).
